Measured values: PubChem BioAssay AID2060328 (Molecular Pharmacology Branch, DTP, NCI, 2025)

Test system: MDA-MB-231 multicell spheroids, viability (%T/C)
Assay: Anticancer human tumor MDA-MB-231 cell line growth inhibition [IpAb];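 note: viability read after seven days of drug exposure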;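 for viability, T/C: 100% = DMSO vehicle control viability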
Details: for IC50: curve of first compound; for viability, T/C: stronger effect = lower value
Outline: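 Multi-cell spheroids of 60% tumour cells, 25% HUVEC and 15% MSC in ultra-low-attachment U-bottom wells, treated with agents combined with ipatasertib or abemaciclib. Half-log ranges top out near clinical Cmax, or 10 microM when Cmax is unknown.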

[1] = second compound 0.1 µM, first compound 0.0316 µM
[2] = second compound 0.1 µM, first compound 0.1 µM
[3] = second compound 0.316 µM, first compound 0.0316 µM
[4] = second compound 0.316 µM, first compound 0.1 µM
[5] = second compound 1 µM, first compound 0.0316 µM
[6] = second compound 1 µM, first compound 0.1 µM

C=CC(=O)N1CCN(c2nc(=O)n(-c3c(C)ccnc3C(C)C)c3nc(-c4c(O)cccc4F)c(F)cc23)C(C)C1 (stereo not given) + CC(C)NCC(C(=O)N1CCN(c2ncnc3c2C(C)CC3O)CC1)c1ccc(Cl)cc1
IC50 (second compound 0.1 µM): > 10000 nM | IC50 (second compound 0.316 µM): > 10000 nM | IC50 (second compound 1 µM): > 10000 nM | IC50 (second compound 3.16 µM): > 10000 nM | IC50 (second compound 10 µM): < 31.6 nM | viability, T/C [1]: 111% | viability, T/C [2]: 113% | viability, T/C (second compound 0.1 µM, first compound 0.316 µM): 116% | viability, T/C (second compound 0.1 µM, first compound 1 µM): 129% | viability, T/C (second compound 0.1 µM, first compound 3.16 µM): 120% | viability, T/C (second compound 0.1 µM, first compound 10 µM): 78.3% | viability, T/C [3]: 96.1% | viability, T/C [4]: 97% | viability, T/C (second compound 0.316 µM, first compound 0.316 µM): 105% | viability, T/C (second compound 0.316 µM, first compound 1 µM): 111% | viability, T/C (second compound 0.316 µM, first compound 3.16 µM): 95.4% | viability, T/C (second compound 0.316 µM, first compound 10 µM): 64.4% | viability, T/C [5]: 81.9% | viability, T/C [6]: 79.8% | viability, T/C (second compound 1 µM, first compound 0.316 µM): 82.3% | viability, T/C (second compound 1 µM, first compound 1 µM): 86% | viability, T/C (second compound 1 µM, first compound 3.16 µM): 71% | viability, T/C (second compound 1 µM, first compound 10 µM): 52.6% | viability, T/C (second compound 3.16 µM, first compound 0.0316 µM): 57.2% | viability, T/C (second compound 3.16 µM, first compound 0.1 µM): 68.6% | viability, T/C (second compound 3.16 µM, first compound 0.316 µM): 67% | viability, T/C (second compound 3.16 µM, first compound 1 µM): 67.5% | viability, T/C (second compound 3.16 µM, first compound 3.16 µM): 62.1% | viability, T/C (second compound 3.16 µM, first compound 10 µM): 44.5% | viability, T/C (second compound 10 µM, first compound 0.0316 µM): 42.5% | viability, T/C (second compound 10 µM, first compound 0.1 µM): 45.9% | viability, T/C (second compound 10 µM, first compound 0.316 µM): 44.4% | viability, T/C (second compound 10 µM, first compound 1 µM): 42.7% | viability, T/C (second compound 10 µM, first compound 3.16 µM): 41.6% | viability, T/C (second compound 10 µM, first compound 10 µM): 32.1%

CC(C)n1nc(-c2ccc3oc(N)nc3c2)c2c(N)ncnc21 + CCN1CCN(Cc2ccc(Nc3ncc(F)c(-c4cc(F)c5nc(C)n(C(C)C)c5c4)n3)nc2)CC1
IC50 (second compound 0.01 µM): 7.66 nM | IC50 (second compound 0.0316 µM): 2.71 nM | IC50 (second compound 0.1 µM): 0.66 nM | IC50 (second compound 0.316 µM): < 0.316 nM | IC50 (second compound 1 µM): < 0.316 nM | viability, T/C (second compound 0.01 µM, first compound 0.000316 µM): 90.3% | viability, T/C (second compound 0.01 µM, first compound 0.001 µM): 85.6% | viability, T/C (second compound 0.01 µM, first compound 0.00316 µM): 65.5% | viability, T/C (second compound 0.01 µM, first compound 0.01 µM): 45.9% | viability, T/C (second compound 0.01 µM, first compound 0.0316 µM): 34.6% | viability, T/C (second compound 0.01 µM, first compound 0.1 µM): 32.3% | viability, T/C (second compound 0.0316 µM, first compound 0.000316 µM): 73.7% | viability, T/C (second compound 0.0316 µM, first compound 0.001 µM): 64.5% | viability, T/C (second compound 0.0316 µM, first compound 0.00316 µM): 48.2% | viability, T/C (second compound 0.0316 µM, first compound 0.01 µM): 33.1% | viability, T/C (second compound 0.0316 µM, first compound 0.0316 µM): 28.8% | viability, T/C (second compound 0.0316 µM, first compound 0.1 µM): 26.8% | viability, T/C (second compound 0.1 µM, first compound 0.000316 µM): 55.1% | viability, T/C (second compound 0.1 µM, first compound 0.001 µM): 47% | viability, T/C (second compound 0.1 µM, first compound 0.00316 µM): 37.4% | viability, T/C (second compound 0.1 µM, first compound 0.01 µM): 30.2% | viability, T/C [1]: 27.6% | viability, T/C [2]: 27.6% | viability, T/C (second compound 0.316 µM, first compound 0.000316 µM): 41.7% | viability, T/C (second compound 0.316 µM, first compound 0.001 µM): 38% | viability, T/C (second compound 0.316 µM, first compound 0.00316 µM): 31.4% | viability, T/C (second compound 0.316 µM, first compound 0.01 µM): 30.1% | viability, T/C [3]: 29.6% | viability, T/C [4]: 29.3% | viability, T/C (second compound 1 µM, first compound 0.000316 µM): 47.1% | viability, T/C (second compound 1 µM, first compound 0.001 µM): 45% | viability, T/C (second compound 1 µM, first compound 0.00316 µM): 39.8% | viability, T/C (second compound 1 µM, first compound 0.01 µM): 45.4% | viability, T/C [5]: 47.4% | viability, T/C [6]: 49.8%
